Assay results published in PubChem BioAssay AID328 (DTP/NCI, 2004).
Values joined by “and” are separate entries in the source; they are usually repeats but may differ in a detail not shown here. Equal values may be shown once. Toxic doses and inconclusive results are not listed.

Tested on: BDF1 mice, P388 leukemia ip, median survival T/C
Assay: NCI In Vivo Anticancer Drug Screen. Data for tumor model P388 Leukemia (intraperitoneal) in B6D2F1 (BDF1) mice
Settings: endpoint: median survival time, higher = longer survival
Procedure, shortened: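 Reported as T/C, where T is the survival measurement in dosed animals and C the same measurement in vehicle controls.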

[1] = dose: 25.0 mg/kg/injection, schedule: Q04DX003 (ip), vehicle: saline with Tween-80
[2] = dose: 50.0 mg/kg/injection, schedule: Q04DX003 (ip), vehicle: saline with Tween-80
[3] = dose: 100.0 mg/kg/injection, schedule: Q04DX003 (ip), vehicle: saline with Tween-80
[4] = dose: 50.0 mg/kg/injection, schedule: Q01DX009 (ip), vehicle: saline with Tween-80
[5] = dose: 100.0 mg/kg/injection, schedule: Q01DX009 (ip), vehicle: saline with Tween-80
[6] = dose: 200.0 mg/kg/injection, schedule: Q01DX009 (ip), vehicle: saline with Tween-80
[7] = dose: 200.0 mg/kg/injection, schedule: Q04DX003 (ip), vehicle: saline with Tween-80
[8] = dose: 100.0 mg/kg/injection, schedule: Q04DX003 (ip), vehicle: saline sonified
[9] = dose: 200.0 mg/kg/injection, schedule: Q04DX003 (ip), vehicle: saline sonified
[10] = dose: 50.0 mg/kg/injection, schedule: Q01DX005 (ip), vehicle: saline with Tween-80
[11] = dose: 100.0 mg/kg/injection, schedule: Q01DX005 (ip), vehicle: saline with Tween-80
[12] = dose: 200.0 mg/kg/injection, schedule: Q01DX005 (ip), vehicle: saline with Tween-80
[13] = dose: 50.0 mg/kg/injection, schedule: Q04DX003 (ip), vehicle: saline sonified

Compound: CCN(CC)CCOc1cc(C)ccc1C
- T/C (dose: 25.0 mg/kg/injection, schedule: Q01DX009 (ip), vehicle: saline): 103 % of control
- T/C (dose: 25.0 mg/kg/injection, schedule: Q04DX003 (ip), vehicle: saline): 109 % of control
- T/C (dose: 50.0 mg/kg/injection, schedule: Q01DX009 (ip), vehicle: saline): 92 % of control
- T/C (dose: 50.0 mg/kg/injection, schedule: Q04DX003 (ip), vehicle: saline): 100 % of control
- T/C (dose: 100.0 mg/kg/injection, schedule: Q01DX009 (ip), vehicle: saline): 89 % of control
- T/C (dose: 100.0 mg/kg/injection, schedule: Q04DX003 (ip), vehicle: saline): 90 % of control

Compound: O=c1c2ccc(Cl)cc2[nH]c2ccc(Cl)cc12
- T/C [1]: 103 % of control
- T/C [2]: 100 % of control
- T/C [3]: 99 % of control

Compound: COc1cc2c(cc1OC)-c1cc3cc(OC)c(OC)cc3c(C)[n+]1CC2 (tested in a mixture with another compound)
- T/C (dose: 12.5 mg/kg/injection, schedule: Q01DX009 (ip), vehicle: Klucel (hydroxypropylcellulose) (HPC)): 103 % of control
- T/C (dose: 25.0 mg/kg/injection, schedule: Q01DX009 (ip), vehicle: saline with Tween-80): 104 % of control
- T/C (dose: 50.0 mg/kg/injection, schedule: Q01DX009 (ip), vehicle: Klucel (hydroxypropylcellulose) (HPC)): 123 % of control
- T/C [4]: 113 % of control
- T/C [5]: 154 % of control

Compound: CCCSC(CC=O)CCC (stereo unspecified)
- T/C (dose: 100.0 mg/kg/injection, schedule: Q01DX001 (ip), vehicle: suspension in saline): 106 % of control
- T/C (dose: 200.0 mg/kg/injection, schedule: Q01DX001 (ip), vehicle: suspension in saline): 92 % of control
- T/C (dose: 400.0 mg/kg/injection, schedule: Q01DX001 (ip), vehicle: suspension in saline): 88 % of control

Compound: CNC(=S)N/N=C\C(=N/NC(=S)NC)c1ccco1
- T/C (dose: 15.0 mg/kg/injection, schedule: Q01DX009 (ip), vehicle: saline with Tween-80): 100 % of control
- T/C (dose: 30.0 mg/kg/injection, schedule: Q01DX009 (ip), vehicle: saline with Tween-80): 98 % of control

Compound: COc1cccc2c1N=C1CCCC3CN(C(C)=O)CCC123 (stereo unspecified)
- T/C [4]: 99 % of control
- T/C [5]: 103 % of control
- T/C [6]: 99 % of control

Compound: Cc1n(CC(C)C)c2c([n+]1C)C(=O)c1ccccc1C2=O
- T/C (dose: 0.25 mg/kg/injection, schedule: Q01DX010 (ip), vehicle: saline): 90 % of control
- T/C (dose: 0.5 mg/kg/injection, schedule: Q01DX010 (ip), vehicle: saline): 90 % of control
- T/C (dose: 1.0 mg/kg/injection, schedule: Q01DX009 (ip), vehicle: saline): 105 % of control
- T/C (dose: 1.0 mg/kg/injection, schedule: Q01DX010 (ip), vehicle: saline): 90 % of control
- T/C (dose: 2.0 mg/kg/injection, schedule: Q01DX009 (ip), vehicle: saline): 120 % of control
- T/C (dose: 2.0 mg/kg/injection, schedule: Q01DX010 (ip), vehicle: saline): 120 % of control

Compound: CCC[As](CCC)SC1OC(COC(C)=O)C(OC(C)=O)C(OC(C)=O)C1OC(C)=O (stereo unspecified)
- T/C (dose: 50.0 mg/kg/injection, schedule: Q01DX009 (ip), vehicle: saline + alcohol): 109 % of control

Compound: CCCN1c2ccccc2Sc2ccccc21
- T/C [1]: 100 % of control
- T/C [2]: 90 % of control
- T/C [3]: 90 % of control
- T/C [7]: 90 % of control

Compound: CC(=O)OC1CCC2(C)C(CCc3ccoc3)=C(C)C(=O)CC2C1(C)C (stereo unspecified)
- T/C (dose: 10.0 mg/kg/injection, schedule: Q01DX009 (ip), vehicle: saline + alcohol): 105 % of control
- T/C (dose: 20.0 mg/kg/injection, schedule: Q01DX009 (ip), vehicle: saline + alcohol): 115 % of control
- T/C (dose: 40.0 mg/kg/injection, schedule: Q01DX009 (ip), vehicle: saline + alcohol): 105 % of control

Compound: COC(=O)NC1=C(N2CC2)C(=O)C(NC(=O)OC)=C(N2CC2)C1=O
- T/C (dose: 0.37 mg/kg/injection, schedule: Q01DX009 (ip), vehicle: saline): 242 % of control and 222 % of control
- T/C (dose: 0.75 mg/kg/injection, schedule: Q01DX009 (ip), vehicle: saline): 252 % of control and 270 % of control

Compound: COc1cc(Cc2nccc3cc(OC)c(OC)cc23)c([N+](=O)[O-])cc1OC
- T/C [8]: 90 % of control
- T/C [9]: 95 % of control
- T/C (dose: 400.0 mg/kg/injection, schedule: Q04DX003 (ip), vehicle: saline sonified): 90 % of control

Compound: N#Cc1ccc(C(=O)/C=C/c2ccc(OCc3ccccc3)cc2)cc1
- T/C [4]: 91 % of control
- T/C [5]: 89 % of control
- T/C [6]: 91 % of control

Compound: c1ccc(OCC2c3ccccc3Nc3ccccc32)cc1
- T/C (dose: 100.0 mg/kg/injection, schedule: Q01DX001 (ip), vehicle: saline with Tween-80): 91 % of control
- T/C (dose: 200.0 mg/kg/injection, schedule: Q01DX001 (ip), vehicle: saline with Tween-80): 94 % of control
- T/C (dose: 400.0 mg/kg/injection, schedule: Q01DX001 (ip), vehicle: saline with Tween-80): 100 % of control

Compound: FC(F)(F)C1=NC(=S)C(c2[nH]c(C(F)(F)F)nc2S)=N1
- T/C (dose: 3.12 mg/kg/injection, schedule: Q01DX009 (ip), vehicle: water): 91 % of control
- T/C (dose: 6.25 mg/kg/injection, schedule: Q01DX009 (ip), vehicle: water): 99 % of control
- T/C (dose: 12.5 mg/kg/injection, schedule: Q01DX009 (ip), vehicle: water): 108 % of control
- T/C (dose: 12.5 mg/kg/injection, schedule: Q04DX003 (ip), vehicle: water): 89 % of control and 107 % of control
- T/C (dose: 25.0 mg/kg/injection, schedule: Q01DX009 (ip), vehicle: water): 103 % of control
- T/C (dose: 25.0 mg/kg/injection, schedule: Q04DX003 (ip), vehicle: water): 95 % of control and 100 % of control
- T/C (dose: 50.0 mg/kg/injection, schedule: Q01DX009 (ip), vehicle: water): 112 % of control
- T/C (dose: 50.0 mg/kg/injection, schedule: Q04DX003 (ip), vehicle: water): 89 % of control and 100 % of control
- T/C (dose: 100.0 mg/kg/injection, schedule: Q01DX009 (ip), vehicle: water): 110 % of control
- T/C (dose: 100.0 mg/kg/injection, schedule: Q04DX003 (ip), vehicle: water): 89 % of control and 105 % of control

Compound: CCC(CC)C(=O)NC
- T/C [10]: 104 % of control
- T/C [11]: 104 % of control
- T/C [12]: 95 % of control

Compound: C1CC[N-]CC1.C1CC[N-]CC1.C1CC[N-]CC1.C1CC[N-]CC1.[Cl][Rh][Cl]
- T/C (dose: 12.5 mg/kg/injection, schedule: Q04DX003 (ip), vehicle: saline): 118 % of control

Compound: N#CC1C(=O)NC(=O)C(C#N)C12CCCCC2 (stereo unspecified)
- T/C [10]: 100 % of control
- T/C [2]: 110 % of control
- T/C [11]: 100 % of control
- T/C [3]: 120 % of control
- T/C [12]: 109 % of control
- T/C [7]: 105 % of control

Compound: CC[CH2][Sn]([Cl])([Cl])[CH2]CC
- T/C (dose: 0.1 mg/kg/injection, schedule: Q01DX009 (ip), vehicle: Klucel (hydroxypropylcellulose) (HPC)): 100 % of control
- T/C (dose: 0.2 mg/kg/injection, schedule: Q01DX009 (ip), vehicle: Klucel (hydroxypropylcellulose) (HPC)): 113 % of control
- T/C (dose: 0.25 mg/kg/injection, schedule: Q01DX009 (ip), vehicle: Klucel (hydroxypropylcellulose) (HPC)): 90 % of control
- T/C (dose: 0.4 mg/kg/injection, schedule: Q01DX009 (ip), vehicle: Klucel (hydroxypropylcellulose) (HPC)): 113 % of control
- T/C (dose: 0.5 mg/kg/injection, schedule: Q01DX009 (ip), vehicle: Klucel (hydroxypropylcellulose) (HPC)): 100 % of control
- T/C (dose: 1.0 mg/kg/injection, schedule: Q01DX009 (ip), vehicle: Klucel (hydroxypropylcellulose) (HPC)): 113 % of control
- T/C (dose: 2.0 mg/kg/injection, schedule: Q01DX009 (ip), vehicle: Klucel (hydroxypropylcellulose) (HPC)): 122 % of control

Compound: Cc1cnc2ncn(Cc3c[nH]c(=O)[nH]c3=O)c(=O)c2c1
- T/C (dose: 12.5 mg/kg/injection, schedule: Q01DX001 (ip), vehicle: saline with Tween-80): 105 % of control and 112 % of control
- T/C (dose: 25.0 mg/kg/injection, schedule: Q01DX001 (ip), vehicle: saline with Tween-80): 104 % of control and 109 % of control
- T/C (dose: 50.0 mg/kg/injection, schedule: Q01DX001 (ip), vehicle: saline with Tween-80): 102 % of control

Compound: CC(=O)OC(C)(C)c1ccccc1[S+]1OC(C)(C)c2ccccc21 (stereo unspecified)
- T/C (dose: 100.0 mg/kg/injection, schedule: Q01DX001 (ip), vehicle: other): 100 % of control

Compound: CC1CC(C)(C)N=C(C(C)CC(C)(C)C)O1 (stereo unspecified)
- T/C [13]: 90 % of control
- T/C [8]: 100 % of control
- T/C [9]: 100 % of control

Compound: Oc1ccccc1C=NC1CCCCC1.Oc1ccccc1C=NC1CCCCC1.[Ni+2]
- T/C [13]: 109 % of control
- T/C [8]: 109 % of control
- T/C [9]: 100 % of control

Compound: O=C(O)COc1ccc(Cl)cc1Cl
- T/C [4]: 118 % of control
- T/C [6]: 90 % of control
